Assay results as given in patent publication US5441875A, “Urea transporter polypeptide” (Brigham and Women's Hospital, priority 1993, dated 1995).
Where two headings read alike, the source gives them in different places. Blank lines part the entries; values can stand above or below the molecule they belong to.

Legend:
[1] = molecular target: T1, urea transporter polypeptide (Oryctolagus cuniculus, UniProt Q28614); assay: cell-based; conditions: for inhibition of urea transport by urea analogues: 150 mM analogue; for effect of cAMP analogues on urea transporter-facilitated urea transport: 30 minute preincubation, 1 mM per analogue; for effect on urea uptake of replacing mannitol in the incubation solution: 100 mM replacing mannitol
T1 sequence (Q28614 1-397): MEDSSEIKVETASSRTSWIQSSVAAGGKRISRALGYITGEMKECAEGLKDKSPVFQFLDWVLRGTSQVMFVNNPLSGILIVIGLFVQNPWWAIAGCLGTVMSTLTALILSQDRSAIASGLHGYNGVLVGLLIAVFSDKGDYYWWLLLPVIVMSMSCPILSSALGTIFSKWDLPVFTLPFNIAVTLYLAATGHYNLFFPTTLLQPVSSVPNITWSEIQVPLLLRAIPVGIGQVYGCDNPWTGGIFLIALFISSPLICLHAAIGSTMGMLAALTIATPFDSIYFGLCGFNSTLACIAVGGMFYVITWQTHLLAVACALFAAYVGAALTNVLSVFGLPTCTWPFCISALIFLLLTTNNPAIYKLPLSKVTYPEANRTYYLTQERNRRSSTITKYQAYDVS
Experimental: (§1) The rabbit kidney medulla mRNA that is size fractionated by the preparative agarose gel electrophoresis was analyzed by oocyte expression assay. Large, fully grown oocytes (stage 5 and 6) with a diameter of 1.2-1.3 mm were hand dissected from ovarian fragments of Xenopus laevis, treated with 2 mg/ml type 1A collagenase to remove follicular cells and incubated in Barth's solution (in mM: 88 NaCl; 0.82 MgSO4; 0.33 Ca (NO3)2; 0.41 CaCl2; 2.4 NaHCO3; 10 HEPES, pH 7.4; 200 mosmol). After 16-24 hours, oocytes were injected with about 50 nl of mRNA or water and incubated in Barth's solution with gentamicin at about 18° C. for another three days after which uptake of ^14 C-urea was measured.
(§2) Unlabelled urea was deionized by passing it through an ion exchange column (AG501-X8 (D), 20-50 Mesh, Bio Rad) immediately before use. The uptake solution consisted of 2 microcuries ^14 C-urea; 1 mM urea; 200 mM mannitol; […]; 1 mM MgCl2; 1 mM CaCl2; 10 mM HEPES; and 5 mM TRIS, unless otherwise specified. In all uptake experiments oocytes were pre-incubated in uptake solution minus urea for one hour. After completion of the uptake, oocytes were washed with ice-cold wash solution (uptake solution without the labelled urea), dissolved in 10% SDS and used for scintillation counting.
Urea transport in the mammalian kidney is generally considered to be passive, although there is some evidence for active ion coupled transport. In studies addressing ion dependencies, urea uptake was measured in oocytes injected with urea transporter cRNA, as described above in Example 1. In the incubation solution, however, mannitol was replaced by NaCl (100 mM), choline chloride (100 mM) or sodium acetate (100 mM).
To study the uptake inhibition by phloretin, phloretin (Sigma) was dissolved in ethanol at 0.5M and added to the uptake solution to give the desired final concentration of 0.35 mM and 0.70 mM. The concentration of ethanol was no more than 0.1%. Ethanol at the same concentration is added to uptake solution without phloretin. Following 15 min pre-incubation in phloretin, ^14 C-urea was added and urea flux was then measured during 90 seconds.
For inhibition studies using urea analogues, all analogues were deionized as described in Example 1 immediately before use. […] Chou and Knepper, 257 Am. J. Physiol. F359-365 (1989).
It is possible that facilitation of urea transport by vasopressin is the result of direct phosphorylation of the transporter or of recruitment of functional transporters from intracellular vesicle pools.

[2] = tested on: urea transport in UT1 cRNA-injected oocytes; assay: 14C-urea uptake into Xenopus oocytes injected with UT1 cRNA; format: cell-based, Xenopus laevis
Experimental: as §1, §2

[3] = tested on: urea transport induced by rabbit kidney medulla poly(A)+ RNA; assay: 14C-urea uptake into Xenopus oocytes injected with poly(A)+ RNA from rabbit kidney medulla; format: cell-based; conditions: phloretin 0.25 mM, 14C-urea 50 mM
Experimental: Messenger RNA, fractionated as above, was collected in 0.6 ml fractions. In preliminary experiments, uptake of ^14 C-labelled urea (50 mM) was measured three days after injection at 5, 30 and 60 minute intervals. […] Phloretin at 0.25 mM inhibited the 30 minute uptake of urea by approximately 50%.

[4] = molecular target: T1, urea transporter polypeptide; assay: Two-microelectrode voltage clamp on urea transporter cRNA-injected oocytes; format: cell-based, rabbit; conditions: urea 1 and 100 mM; holding potential -60 mV
Experimental: Electrophysiological studies are in agreement with this finding. Electrophysiological measurements were made on oocytes 3-4 days after injection with urea transporter cRNA-injected oocytes using conventional two-microelectrode voltage clamp methods (Axoclamp-2A, Axon Instruments). Membrane current was measured in a standard bath of 96 mM NaCl; 2 mM KCl; 1.8 mM CaCl2; 1.0 mM MgCl2; and 5 mM HEPES, pH 7.4, at a holding potential of -60 mV.

[5] = tested on: water-injected control oocytes; conditions: not told, 1000 µM
Experimental: as §1, §2

[6] = read-out: inhibition of urea uptake

inhibition of urea transport by urea analogues ([1]; 14C-urea 1 mM): no significant effect
Molecule: CN(C)C(N)=O [1,1-dimethylurea]

inhibition of urea transport by urea analogues ([1]; 14C-urea 1 mM): 65%
Molecule: CNC(=O)NC [1,3 dimethylurea, 1,3-dimethylurea]

effect of cAMP analogues on urea transporter-facilitated urea transport [1]: no effect
Molecule: Nc1ncnc2c1nc(Br)n2[C@@H]1O[C@@H]2COP(=O)(O)O[C@H]2[C@H]1O [8-bromo-cAMP]

inhibition of urea transport by urea analogues ([1]; 14C-urea 1 mM): 38%
Molecule: CNC(N)=O [N-methylurea]

inhibition of urea transport by urea analogues ([1]; 14C-urea 1 mM): no significant effect
Molecule: CC(N)=O [acetamide]

effect of cAMP analogues on urea transporter-facilitated urea transport [1]: no effect
Molecule: CCCC(=O)Nc1ncnc2c1ncn2[C@@H]1O[C@@H]2COP(=O)(O)O[C@H]2[C@H]1OC(=O)CCC [dibutyryl cyclic-AMP]

membrane current evoked by bath applied urea [4]: did not evoke a significant current
maximum uptake of 14C-urea ([1]; 14C-urea 1 mM, between 10 and 30 minutes): approximately 250 pmoles/oocyte
saturation of urea transporter polypeptide-mediated urea transport ([1]; concentration range between 1 and 200 mM urea): no saturation
urea permeability of urea transporter-injected oocytes ([1]; not told, 1000 µM): 45 ×10⁻⁶ cm/s
permeability of water-injected control oocytes for urea [5]: 1.9 ×10⁻⁶ cm/s
Molecule: NC(N)=O [urea]

increase of the permeability of oocytes to urea ([1]; versus water-injected control oocytes): 23 fold
B1: urea transporter: 397-amino acid residue membrane glycoprotein from rabbit kidney medulla (SEQ ID NO.: 2), expressed from UT2 cRNA (protein)
chain: T1 sequence (Q28614 1-397)
modifications: glycosylated

The next lines start with the molecule.

Molecule: [Cl-].[Na+] [NaCl]
effect on urea uptake of replacing mannitol in the incubation solution [1]: did not alter urea uptake

Molecule: Nc1ncnc2c1ncn2C1OC2COP(O)(=S)OC2C1O (stereo not shown) [Sp-cAMPS]
effect of cAMP analogues on urea transporter-facilitated urea transport [1]: no effect

Molecule: NC(N)=S [Thiourea, thiourea]
inhibition of urea transport by urea analogues ([1]; 14C-urea 1 mM): 38%

Molecule: C[N+](C)(C)CCO.[Cl-] [choline chloride]
effect on urea uptake of replacing mannitol in the incubation solution [1]: no effect

Molecule: O=C(CCc1ccc(O)cc1)c1c(O)cc(O)cc1O [phloretin]
inhibition at 350 µM [1, 6]: 48%
inhibition at 700 µM [1, 6]: 78%
inhibition at 350 µM ([1]; read-out: inhibition of urea uptake (phloretin-sensitivity of clone pool)): ~50%
phloretin sensitivity of UT1-induced urea transport [2]: not phloretin-sensitive
inhibition of the 30 minute uptake of urea [3]: approximately 50%

Molecule: CC(=O)O [sodium acetate]
effect on urea uptake of replacing mannitol in the incubation solution [1]: no effect
